In patent publication US20230203059A1, “MACROCYCLIC JAK INHIBITOR AND USES THEREOF” (Biopolar Hongye (Guangdong) Pharmaceutical Co. Ltd., priority 2020, published 2023):

Legend:
Format in all cases: biochemical
[1] = biological target: JAK1 (Homo sapiens, UniProt P23458); experiment: JAK kinase activity, homogeneous time-resolved fluorescence (JAK1 reaction system); settings: ATP 2 μM, JAK1 protein 0.2 ng/μL; read-out: JAK 1 activity
Outline: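 Kinase activity read as the 665 nm/615 nm time-resolved fluorescence ratio (320 nm excitation) after EDTA-containing antibody and XL-615 addition. Reaction ran 1 h at pH 7.0 (Hepes, MgCl2, DTT) with 0.2 ng/μL JAK1 and ATP at 2 μM. IC50 derived by Hill-slope fit.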

[2] = biological target: JAK2 (Homo sapiens, UniProt O60674); experiment: JAK kinase activity, homogeneous time-resolved fluorescence (JAK2 reaction system); settings: ATP 2 μM, JAK2 protein 0.01 ng/μL
Outline: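 IC50 derived by Hill-equation fit of the 665/615 nm time-resolved fluorescence ratio after EDTA-containing detection mix with anti-phosphosubstrate antibody. Preceding 1 h reaction contained 2 μM ATP, 0.01 ng/μL JAK2, substrate, 50 mM Hepes pH 7.0, 5 mM MgCl2, 1 mM DTT.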

[3] = biological target: T1, JAK3 (Homo sapiens, UniProt P52333); experiment: JAK kinase activity, homogeneous time-resolved fluorescence (JAK3 reaction system); settings: ATP 2 μM, JAK3 protein 0.04 ng/μL; read-out: JAK 3 activity
T1 sequence (P52333 1-1124): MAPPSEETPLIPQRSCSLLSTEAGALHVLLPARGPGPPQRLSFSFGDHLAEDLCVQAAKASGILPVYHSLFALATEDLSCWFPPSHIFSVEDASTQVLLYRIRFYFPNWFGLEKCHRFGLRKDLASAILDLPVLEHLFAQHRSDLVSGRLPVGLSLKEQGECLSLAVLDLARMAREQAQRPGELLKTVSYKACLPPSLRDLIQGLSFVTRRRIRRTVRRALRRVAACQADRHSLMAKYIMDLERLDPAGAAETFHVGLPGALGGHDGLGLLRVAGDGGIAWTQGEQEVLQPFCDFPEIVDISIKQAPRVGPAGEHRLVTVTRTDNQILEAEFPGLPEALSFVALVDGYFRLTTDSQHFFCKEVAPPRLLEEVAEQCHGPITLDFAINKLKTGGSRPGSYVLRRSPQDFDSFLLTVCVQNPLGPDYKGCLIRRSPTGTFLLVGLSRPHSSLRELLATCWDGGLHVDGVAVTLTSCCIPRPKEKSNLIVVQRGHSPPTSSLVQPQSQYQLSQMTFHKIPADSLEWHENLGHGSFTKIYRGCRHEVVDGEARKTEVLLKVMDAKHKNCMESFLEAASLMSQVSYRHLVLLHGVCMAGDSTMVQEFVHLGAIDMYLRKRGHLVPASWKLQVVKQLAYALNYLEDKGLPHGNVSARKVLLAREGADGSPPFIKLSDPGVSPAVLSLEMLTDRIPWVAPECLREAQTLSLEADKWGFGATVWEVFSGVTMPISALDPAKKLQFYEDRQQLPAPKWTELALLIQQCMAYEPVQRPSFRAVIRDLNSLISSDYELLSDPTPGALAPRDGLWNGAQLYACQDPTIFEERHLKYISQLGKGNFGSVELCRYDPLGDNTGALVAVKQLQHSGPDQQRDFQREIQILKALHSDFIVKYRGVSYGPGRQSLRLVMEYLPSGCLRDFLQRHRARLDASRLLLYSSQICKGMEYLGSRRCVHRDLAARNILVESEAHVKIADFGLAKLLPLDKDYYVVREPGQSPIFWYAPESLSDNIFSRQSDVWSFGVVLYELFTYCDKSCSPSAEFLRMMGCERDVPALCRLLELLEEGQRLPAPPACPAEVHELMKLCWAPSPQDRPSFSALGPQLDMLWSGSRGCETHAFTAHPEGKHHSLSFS

[4] = biological target: TYK2 (Homo sapiens, UniProt P29597); experiment: JAK kinase activity, homogeneous time-resolved fluorescence (TYK2 reaction system); settings: ATP 2 μM, TYK2 protein 0.2 ng/μL; read-out: TYK 2 activity
Outline: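 Activity read as the 665 nm/615 nm ratio after adding EDTA-containing detection mix with anti-phospho-substrate antibody and XL-615. Beforehand, 0.2 ng/μL TYK2, 2 μM ATP, substrate and compound reacted 1 h in pH 7.0 Hepes buffer with MgCl2 and DTT. IC50 fitted with Hill-slope equation.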

Chain of TYK2 (P29597 whole entry): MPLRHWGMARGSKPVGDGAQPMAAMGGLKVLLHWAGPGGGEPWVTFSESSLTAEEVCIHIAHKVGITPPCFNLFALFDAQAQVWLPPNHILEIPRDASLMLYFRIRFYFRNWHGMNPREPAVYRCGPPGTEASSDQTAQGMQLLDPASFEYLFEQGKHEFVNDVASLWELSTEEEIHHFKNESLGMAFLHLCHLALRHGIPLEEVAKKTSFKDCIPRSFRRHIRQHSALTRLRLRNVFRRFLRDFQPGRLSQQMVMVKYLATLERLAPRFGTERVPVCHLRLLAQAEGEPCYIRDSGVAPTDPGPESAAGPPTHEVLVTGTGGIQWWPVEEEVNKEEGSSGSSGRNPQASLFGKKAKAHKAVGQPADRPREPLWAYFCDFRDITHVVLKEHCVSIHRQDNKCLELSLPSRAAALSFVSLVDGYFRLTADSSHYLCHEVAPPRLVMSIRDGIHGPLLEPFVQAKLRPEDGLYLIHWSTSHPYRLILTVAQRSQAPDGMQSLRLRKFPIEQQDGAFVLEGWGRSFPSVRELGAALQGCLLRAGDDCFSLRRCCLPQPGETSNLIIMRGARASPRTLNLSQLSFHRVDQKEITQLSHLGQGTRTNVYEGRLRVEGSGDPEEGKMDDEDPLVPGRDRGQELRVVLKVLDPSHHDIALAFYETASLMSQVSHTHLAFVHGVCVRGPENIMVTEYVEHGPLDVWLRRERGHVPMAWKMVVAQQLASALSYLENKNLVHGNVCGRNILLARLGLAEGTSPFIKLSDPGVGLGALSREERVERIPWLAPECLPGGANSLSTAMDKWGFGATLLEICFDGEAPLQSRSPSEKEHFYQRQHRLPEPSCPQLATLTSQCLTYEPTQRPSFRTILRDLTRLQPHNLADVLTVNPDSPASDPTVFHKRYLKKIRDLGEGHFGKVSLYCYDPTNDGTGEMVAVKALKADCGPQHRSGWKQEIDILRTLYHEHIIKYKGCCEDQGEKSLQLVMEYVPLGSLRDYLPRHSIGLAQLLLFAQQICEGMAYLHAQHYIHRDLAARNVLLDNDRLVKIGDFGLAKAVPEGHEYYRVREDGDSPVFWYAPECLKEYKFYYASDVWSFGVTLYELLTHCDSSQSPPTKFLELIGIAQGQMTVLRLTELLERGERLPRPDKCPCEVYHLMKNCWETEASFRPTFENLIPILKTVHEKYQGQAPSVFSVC
Chain of JAK2 (O60674 whole entry): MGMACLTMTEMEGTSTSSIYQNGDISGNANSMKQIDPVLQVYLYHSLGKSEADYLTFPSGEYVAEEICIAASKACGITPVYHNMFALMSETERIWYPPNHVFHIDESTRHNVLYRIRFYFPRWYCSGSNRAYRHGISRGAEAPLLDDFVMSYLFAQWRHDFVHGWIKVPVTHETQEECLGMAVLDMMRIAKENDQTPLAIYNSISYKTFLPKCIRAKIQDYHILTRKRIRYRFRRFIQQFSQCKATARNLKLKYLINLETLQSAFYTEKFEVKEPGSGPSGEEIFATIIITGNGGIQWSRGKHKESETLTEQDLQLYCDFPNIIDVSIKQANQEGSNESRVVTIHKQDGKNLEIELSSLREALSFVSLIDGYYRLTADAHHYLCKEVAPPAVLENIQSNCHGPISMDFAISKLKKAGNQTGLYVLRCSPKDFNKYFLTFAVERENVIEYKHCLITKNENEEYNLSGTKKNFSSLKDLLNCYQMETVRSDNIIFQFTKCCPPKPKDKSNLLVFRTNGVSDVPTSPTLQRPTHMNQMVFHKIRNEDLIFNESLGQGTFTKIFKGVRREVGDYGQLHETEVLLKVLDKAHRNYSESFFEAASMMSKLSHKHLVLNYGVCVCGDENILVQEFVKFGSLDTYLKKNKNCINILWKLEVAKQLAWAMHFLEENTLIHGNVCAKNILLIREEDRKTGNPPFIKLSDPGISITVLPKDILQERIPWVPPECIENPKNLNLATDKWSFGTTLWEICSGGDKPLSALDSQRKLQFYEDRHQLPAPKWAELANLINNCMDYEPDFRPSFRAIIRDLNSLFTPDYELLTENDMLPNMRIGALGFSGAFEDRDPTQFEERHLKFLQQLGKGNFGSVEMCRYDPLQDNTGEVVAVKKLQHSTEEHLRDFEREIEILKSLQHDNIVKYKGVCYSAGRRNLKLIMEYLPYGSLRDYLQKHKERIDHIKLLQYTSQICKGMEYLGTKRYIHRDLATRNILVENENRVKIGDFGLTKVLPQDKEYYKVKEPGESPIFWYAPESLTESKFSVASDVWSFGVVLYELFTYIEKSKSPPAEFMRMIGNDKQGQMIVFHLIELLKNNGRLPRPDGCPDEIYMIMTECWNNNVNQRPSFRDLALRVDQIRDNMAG
Chain of JAK1 (P23458 whole entry): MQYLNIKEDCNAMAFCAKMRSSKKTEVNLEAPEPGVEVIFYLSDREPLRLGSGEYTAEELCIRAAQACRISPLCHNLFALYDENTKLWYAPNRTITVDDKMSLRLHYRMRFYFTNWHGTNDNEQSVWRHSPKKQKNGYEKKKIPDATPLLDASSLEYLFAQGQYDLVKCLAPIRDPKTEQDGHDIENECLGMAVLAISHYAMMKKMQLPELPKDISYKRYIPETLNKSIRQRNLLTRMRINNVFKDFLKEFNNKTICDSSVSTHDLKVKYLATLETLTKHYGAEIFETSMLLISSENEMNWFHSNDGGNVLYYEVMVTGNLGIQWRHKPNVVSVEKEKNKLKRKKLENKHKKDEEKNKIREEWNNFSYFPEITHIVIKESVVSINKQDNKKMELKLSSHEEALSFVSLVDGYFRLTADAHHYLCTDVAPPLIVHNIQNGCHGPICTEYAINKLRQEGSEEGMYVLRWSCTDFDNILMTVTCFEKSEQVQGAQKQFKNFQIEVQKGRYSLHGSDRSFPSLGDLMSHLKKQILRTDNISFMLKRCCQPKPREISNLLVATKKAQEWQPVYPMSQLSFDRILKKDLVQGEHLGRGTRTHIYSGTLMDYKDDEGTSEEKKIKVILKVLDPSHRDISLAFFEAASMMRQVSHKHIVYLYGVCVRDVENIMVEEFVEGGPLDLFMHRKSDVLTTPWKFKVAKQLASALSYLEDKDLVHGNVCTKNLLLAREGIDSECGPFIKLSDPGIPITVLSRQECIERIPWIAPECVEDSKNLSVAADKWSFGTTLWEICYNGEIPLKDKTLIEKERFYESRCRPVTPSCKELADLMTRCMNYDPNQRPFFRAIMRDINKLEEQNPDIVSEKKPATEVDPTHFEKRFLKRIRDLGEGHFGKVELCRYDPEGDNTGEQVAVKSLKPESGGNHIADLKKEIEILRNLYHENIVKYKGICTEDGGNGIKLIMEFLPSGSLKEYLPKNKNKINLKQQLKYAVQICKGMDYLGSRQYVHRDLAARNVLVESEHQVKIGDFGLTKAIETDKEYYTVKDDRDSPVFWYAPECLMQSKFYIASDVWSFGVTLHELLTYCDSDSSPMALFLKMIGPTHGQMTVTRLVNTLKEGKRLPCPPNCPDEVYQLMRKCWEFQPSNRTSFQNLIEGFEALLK

Compound | IC50 [1] [nM] | IC50 [2] [nM] | IC50 [3] [nM] | IC50 [4] [nM]
Nc1cc2ccc1-c1ccnc(n1)Nc1ccc(OC3CCCOC3)c(c1)COCCCCNC2=O (stereo not shown) [Example 114, 1^2-amino-4^4-((tetrahydro-2H-pyran-3-yl)oxy)-6-oxa-3,11-diaza-2(4,2)-pyrimidina-1(1,4),4(1,3)-di-benzenacyclododecaphan-12-one] | 101 to 1000 | 11 to 100 | < 10 | 1000 to 10000
COc1cccc(F)c1COc1ccc2cc1COCC[C@H](C)CNC(=O)c1ccc(c(N)c1)-c1ccnc(n1)N2 [Example 192, (S)-1^2-amino-4^4-((2-fluoro-6-meth-oxybenzyl)oxy)-9-methyl-6-oxa-3,11-diaza-2(4,2)-pyrimidina-1(1,4),4(1,3)-dibenzenacyclo-dodecaphan-12-one] | 1000 to 10000 | 1000 to 10000 | 101 to 1000 | > 10000
CC1CCNC(=O)c2ccc(c(N)c2)-c2ccnc(n2)Nc2ccc(OCC3CCCCC3)c(c2)COC1 (stereo not shown) [Example 149, 1^2-amino-4^4-(cyclohexylmethoxy)-8-methyl-6-oxa-3,11-diaza-2(4,2)-pyrimidina-1(1,4),4(1,3)-dibenzena-cyclododecaphan-12-one] | 1000 to 10000 | 1000 to 10000 | 11 to 100 | > 10000
C[C@H]1CCOCc2cc(ccc2OC2CCCC2)Nc2nccc(n2)-c2ccc(cc2N)C(=O)NC1 [Example 190] | 1000 to 10000 | 101 to 1000 | 11 to 100 | 1000 to 10000
Nc1cc2ccc1-c1ccnc(n1)Nc1ccc(OC3CCC3)c(c1)COCCCCNC2=O [Example 79, 1^2-amino-4^4-cyclobutoxy-6-oxa-3,11-diaza-2(4,2)-pyrimidina-1(1,4),4(1,3)-dibenzenacyclododecaphan-12-one] | 101 to 1000 | 101 to 1000 | 11 to 100 | 1000 to 10000
O=C1NCCCCOCc2cc(cc(N3CCOCC3)c2)Nc2nccc(n2)-c2ccc1cc2[N+](=O)[O-] [Example 51, 1^2-nitro-4^5-morpholin-6-oxa-3,11-di-aza-2(4,2)-pyrimidina-1(1,4),4(1,3)-dibenzenacyclododecaphan-12-one] | 1000 to 10000 | 1000 to 10000 | 101 to 1000 | > 10000
O=C1NCCCCOCc2cccc(c2)Nc2nccc(n2)-c2ccc1cc2F [Example 12, 1^2-fluoro-6-oxa-3,11-diaza-2(4,2)-py-rimidina-1(1,4),4(1,3)-dibenzenacy-clododecaphan-12-one] | 101 to 1000 | 101 to 1000 | 11 to 100 | 1000 to 10000
COc1cc(C#N)cc(F)c1COc1ccc2cc1COCCCCNC(=O)c1ccc(c(N)c1)-c1ccnc(n1)N2 [Example 196, 4-(((1^2-amino-12-oxo-6-oxa-3,11-diaza-2(4,2)-pyrimidina-1(1,4),4(1,3)-dibenzenacyclododecaphan-4^4-yl)oxy)methyl)-3-fluoro-5-methoxy-benzonitrile] | 1000 to 10000 | 101 to 1000 | < 10 | 1000 to 10000

Results, then the compound that gave them:

IC50 [1] [nM] | IC50 [2] [nM] | IC50 [3] [nM] | IC50 [4] [nM] | Compound
1000 to 10000 | 101 to 1000 | < 10 | 1000 to 10000 | COc1cc(F)cc(F)c1COc1ccc2cc1COCCCCNC(=O)c1ccc(c(N)c1)-c1ccnc(n1)N2 [Example 183, 1^2-amino-4^4-((2,4-difluoro-6-meth-oxybenzyl)oxy)-6-oxa-3,11-diaza-2(4,2)-pyrimidina-1(1,4),4(1,3)-di-benzenacyclododecaphan-12-one]
1000 to 10000 | 101 to 1000 | < 10 | > 10000 | Nc1cc2ccc1-c1ccnc(n1)Nc1ccc(OCc3ccccc3F)c(c1)COCCCCNC2=O [Example 153, 1^2-amino-4^4-((2-fluorobenzyl)oxy)-6-oxa-3,11-diaza-2(4,2)-pyrimidi-na-1(1,4),4(1,3)-dibenzenacyclo-dodecaphan-12-one]
> 10000 | > 10000 | 1000 to 10000 | > 10000 | O=C1NCCCCOCc2cc(ccc2OCc2cccc3c2CCO3)Nc2nccc(n2)-c2ccc1cc2[N+](=O)[O-] [Example 150, 4^4-((2,3-dihydroxybenzofuran-4-yl)methoxy)-1^2-nitro-6-oxa-3,11-diaza-2(4,2)-pyrimidina-1(1,4),4(1,3)-dibenzenacyclododecaphan-12-one]
101 to 1000 | 11 to 100 | 11 to 100 | 101 to 1000 | O=C1NCCCCOCc2cc(ccc2N2CCOCC2)Nc2nccc(n2)-c2ccc1cc2Cl [Example 30, 1^2-chloro-4^4-morpholin-6-oxa-3,11-diaza-2(4,2)-pyrimidina-1(1,4),4(1,3)-dibenzenacyclododecaphan-12-one]
101 to 1000 | 101 to 1000 | < 10 | 1000 to 10000 | Nc1cc2ccc1-c1ccnc(n1)Nc1ccc(OCC3CCC3)c(c1)COCCCCNC2=O [Example 100, 1^2-amino-4^4-(cyclobutylmethoxy)-6-oxa-3,11-diaza-2(4,2)-pyrimidina-1(1,4),4(1,3)-dibenzenacyclododeca-phan-12-one]
1000 to 10000 | 1000 to 10000 | 101 to 1000 | > 10000 | Cc1ccc2cc1COCCCCNC(=O)c1ccc(c(N)c1)-c1ccnc(n1)N2 [Example 43, 1^2-amino-4^4-methyl-6-oxa-3,11-dia-za-2(4,2)-pyrimidina-1(1,4),4(1,3)-dibenzenacyclododecaphan-12-one]
101 to 1000 | 101 to 1000 | 11 to 100 | > 10000 | Nc1cc2ccc1-c1ccnc(n1)Nc1ccc(Br)c(c1)COCCCCNC2=O [Example 90, 1^2-amino-4^4-bromo-6-oxa-3,11-diaza-2(4,2)-pyrimidina-1(1,4),4(1,3)-di-benzenacyclododecaphan-12-one]
101 to 1000 | 101 to 1000 | 11 to 100 | > 10000 | CC(C)Oc1c(F)cc2cc1COCCCCNC(=O)c1ccc(c(N)c1)-c1ccnc(n1)N2 [Example 85, 1^2-amino-4^5-fluoro-4^4-isopropoxy-6-oxa-3,11-diaza-2(4,2)-pyrimidina-1(1,4),4(1,3)-dibenzenacyclododeca-phan-12-one]
1000 to 10000 | 101 to 1000 | 11 to 100 | 1000 to 10000 | Nc1cc2ccc1-c1ccnc(n1)Nc1ccc(OC3CCCOC3)c(c1)COc1ccc(cc1)NC2=O (stereo not shown) [Example 197, 1^2-amino-4^4-((tetrahydro-2H-pyran-3-yl)oxy)-6-oxa-3-8-diaza-2 (4,2)-pyrimidina-1,7(1,4), 4 (1,3)-tribenzenacyclononaphane-9-one]
101 to 1000 | 11 to 100 | 11 to 100 | 101 to 1000 | CC(C)Oc1ccc2cc1COCC[C@@H](C)CNC(=O)c1ccc(c(N)c1)-c1ccnc(n1)N2 [Example 187, (R)-1^2-amino-4^4-isopropoxy-9-meth-yl-6-oxa-3,11-diaza-2(4,2)-pyri-midina-1(1,4),4(1,3)-dibenzenacyclo-dodecaphan-12-one]
1000 to 10000 | 101 to 1000 | 11 to 100 | 1000 to 10000 | CN1CCN(c2ccc3cc2COCCCCNC(=O)c2ccc(c(N)c2)-c2ccnc(n2)N3)CC1 [Example 70, 1^2-amino-4^4-(4-methylpiperazin-1-yl)-6-oxa-3,11-diaza-2(4,2)-pyrimidi-na-1(1,4),4(1,3)-dibenzenacyclo-dodecaphan-12-one]
